Source: patent US20030055263A1, “Carboxylic acid derivatives, medicaments comprising these compounds, their use and processes for their production” (Boehringer Ingelheim Pharma KG, priority 2001, published 2003)

molecular target: T1, telomerase in nuclear extracts from HeLa cells (Homo sapiens, UniProt O14746); assay: Telomerase test in nuclear extracts from HeLa cells (method of Morin); format: biochemical; conditions: HeLa nuclear extract, 120 minutes at 30° C., inhibitor 1 nM to 100 μM, 32P-dGTP incorporation quantified by Phospho-Imager
T1 construct: The activity of telomerase in nuclear extracts from HeLa cells; endogenous in cells; host or cells: HeLa-S3 (ATCC CCL-2.2) nuclear extract
Experimental: 1. Preparation of nuclear extracts from HeLa cells: Nuclear extracts were prepared according to Dignam (Dignam et al. in Nucleic Acids Res. 11, 1475-1489 (1983)). All the steps were carried out at 4° C., all the equipment and solutions were pre-cooled to 4° C. At least 1×10^9 HeLa-S3 cells growing in suspension culture (ATCC catalogue number CCL-2.2) were harvested by centrifuging for 5 minutes at 1000×g and washed once with PBS buffer ([…]; 2.7 mM KCl; 8.1 mM Na2HPO4; 1.5 mM KH2PO4) . After the cell volume had been determined, the cells were suspended in 5 times the volume of hypotonic buffer (10 mM HEPES/KOH, pH 7.8; 10 mM KCl; 1.5 mM MgCl2) and then left for 10 minutes at 4° C. After centrifuging for 5 minutes at 1000×g the cell pellet was suspended in twice the volume of hypotonic buffer in the presence of 1 mM DTE and 1 mM PMSF and broken up with a Dounce homogeniser. The homogenised material was made isotonic with 0.1 volume of 10-fold saline buffer (300 mM HEPES/KOH, pH 7.8; 1.4 M KCl; 30 mM MgCl2). The cell nuclei were separated from the ingredients of the cytoplasm by centrifuging and then suspended in twice the volume of nuclear extraction buffer (20 mM HEPES/KOH, pH 7.9; 420 mM KCl; 1.5 mM MgCl2; 0.2 mM EDTA; 0.5 mM DTE; 25% glycerol). The nuclei were broken up using a Dounce homogeniser and incubated for 30 minutes at 4° C. with gentle stirring. Any insoluble ingredients were removed by centrifuging for 30 minutes at 10.000 rpm (SS-34 Rotor). Then the nuclear extract was dialysed for 4-5 hours against AM-100 buffer (20 mM tris/HCl, pH 7.9; 100 mM KCl; 0.1 mM EDTA; 0.5 mM DTE; 20% glycerol). The nuclear extracts obtained were frozen in liquid nitrogen and stored at −80° C.
2. Telomerase test: The activity of telomerase in nuclear extracts from HeLa cells was determined using the method described by Morin (Morin in Cell 59. 521-529 (1989)). […] If the inhibition constant of potential telomerase inhibitors was to be determined, these were also added to the telomerase reaction in a concentration range of from 1 nM to 100 μM. […]

T1 sequence (O14746 whole entry): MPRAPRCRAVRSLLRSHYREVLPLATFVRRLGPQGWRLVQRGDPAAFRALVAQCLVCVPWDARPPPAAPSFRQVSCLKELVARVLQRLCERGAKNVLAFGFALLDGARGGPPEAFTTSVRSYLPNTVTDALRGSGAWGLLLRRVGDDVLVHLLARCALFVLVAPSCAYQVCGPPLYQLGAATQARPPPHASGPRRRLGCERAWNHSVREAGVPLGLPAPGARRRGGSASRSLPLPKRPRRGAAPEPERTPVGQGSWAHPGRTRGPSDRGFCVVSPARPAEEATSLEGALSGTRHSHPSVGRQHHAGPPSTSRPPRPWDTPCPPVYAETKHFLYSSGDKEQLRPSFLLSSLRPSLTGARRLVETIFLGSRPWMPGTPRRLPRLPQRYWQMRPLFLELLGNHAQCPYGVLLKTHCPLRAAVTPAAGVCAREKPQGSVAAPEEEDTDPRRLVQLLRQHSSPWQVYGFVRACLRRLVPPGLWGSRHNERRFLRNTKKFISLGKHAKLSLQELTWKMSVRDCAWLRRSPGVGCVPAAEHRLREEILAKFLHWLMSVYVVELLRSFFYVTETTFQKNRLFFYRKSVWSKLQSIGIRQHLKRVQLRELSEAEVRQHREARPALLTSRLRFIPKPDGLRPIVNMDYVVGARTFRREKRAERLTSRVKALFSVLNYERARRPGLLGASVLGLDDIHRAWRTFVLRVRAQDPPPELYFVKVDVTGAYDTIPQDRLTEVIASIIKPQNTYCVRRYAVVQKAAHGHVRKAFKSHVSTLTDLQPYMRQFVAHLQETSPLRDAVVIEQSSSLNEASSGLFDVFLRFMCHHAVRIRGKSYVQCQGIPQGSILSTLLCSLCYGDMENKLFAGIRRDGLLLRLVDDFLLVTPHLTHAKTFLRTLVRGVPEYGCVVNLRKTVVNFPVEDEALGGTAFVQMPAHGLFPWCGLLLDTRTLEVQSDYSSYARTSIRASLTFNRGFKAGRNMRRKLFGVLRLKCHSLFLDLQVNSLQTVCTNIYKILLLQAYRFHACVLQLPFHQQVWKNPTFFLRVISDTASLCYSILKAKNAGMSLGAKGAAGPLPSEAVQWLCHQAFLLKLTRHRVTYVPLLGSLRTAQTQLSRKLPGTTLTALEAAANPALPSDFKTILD
T1 sequence (O60832 whole entry partner): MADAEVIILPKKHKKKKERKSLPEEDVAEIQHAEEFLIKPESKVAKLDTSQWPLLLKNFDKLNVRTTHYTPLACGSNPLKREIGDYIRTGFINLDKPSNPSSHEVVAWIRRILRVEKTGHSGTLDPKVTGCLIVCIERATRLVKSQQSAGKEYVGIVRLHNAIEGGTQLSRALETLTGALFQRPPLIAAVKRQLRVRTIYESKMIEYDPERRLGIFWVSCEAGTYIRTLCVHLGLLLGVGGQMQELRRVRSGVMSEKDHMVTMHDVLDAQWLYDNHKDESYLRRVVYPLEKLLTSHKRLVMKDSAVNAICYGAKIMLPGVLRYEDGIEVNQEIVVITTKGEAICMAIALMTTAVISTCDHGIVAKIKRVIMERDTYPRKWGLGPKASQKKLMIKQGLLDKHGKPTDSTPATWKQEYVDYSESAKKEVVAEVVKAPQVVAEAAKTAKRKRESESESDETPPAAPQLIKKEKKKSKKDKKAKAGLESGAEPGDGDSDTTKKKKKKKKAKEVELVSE
T1 sequence (Q9NX24 whole entry partner): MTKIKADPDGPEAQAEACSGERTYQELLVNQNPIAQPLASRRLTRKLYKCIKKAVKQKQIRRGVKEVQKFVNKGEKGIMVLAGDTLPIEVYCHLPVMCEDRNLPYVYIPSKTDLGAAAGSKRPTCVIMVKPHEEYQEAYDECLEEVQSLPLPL
T1 sequence (Q9NPE3 whole entry partner): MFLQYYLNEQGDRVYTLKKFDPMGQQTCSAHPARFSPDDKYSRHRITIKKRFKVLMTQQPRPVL
T1 sequence (Q9NY12 whole entry partner): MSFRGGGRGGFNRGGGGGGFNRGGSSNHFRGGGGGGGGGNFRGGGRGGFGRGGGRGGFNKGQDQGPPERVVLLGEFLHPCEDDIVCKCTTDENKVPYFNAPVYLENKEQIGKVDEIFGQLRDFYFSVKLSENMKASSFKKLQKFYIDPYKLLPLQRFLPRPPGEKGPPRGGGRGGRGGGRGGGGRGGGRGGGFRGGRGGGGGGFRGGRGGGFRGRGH
T1 sequence (Q9BUR4 whole entry partner): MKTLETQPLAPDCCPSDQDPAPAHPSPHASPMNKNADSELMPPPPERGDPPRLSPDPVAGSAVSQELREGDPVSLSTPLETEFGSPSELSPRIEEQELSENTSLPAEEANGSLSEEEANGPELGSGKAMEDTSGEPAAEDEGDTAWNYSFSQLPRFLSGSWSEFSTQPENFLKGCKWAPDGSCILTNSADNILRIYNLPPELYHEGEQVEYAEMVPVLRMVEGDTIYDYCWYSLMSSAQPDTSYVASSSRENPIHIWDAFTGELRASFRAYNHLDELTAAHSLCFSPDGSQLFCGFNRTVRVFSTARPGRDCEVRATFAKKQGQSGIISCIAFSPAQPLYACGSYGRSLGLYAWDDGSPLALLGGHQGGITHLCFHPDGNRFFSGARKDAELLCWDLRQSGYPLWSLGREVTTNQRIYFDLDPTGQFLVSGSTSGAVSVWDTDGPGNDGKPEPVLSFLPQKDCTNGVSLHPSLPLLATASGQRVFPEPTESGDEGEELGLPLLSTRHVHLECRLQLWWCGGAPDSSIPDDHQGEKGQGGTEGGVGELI

Row | SMILES | IC50 [nM]
1 | O=C(O)c1ccccc1C(=O)Nc1nc(-c2ccc3ccccc3c2)cs1 [Example 3, 2-[4-(naphthalin-2-yl)-thiazol-2-ylaminocarbonyl]-benzoic acid] | < 5000
2 | O=C(O)C1=C(C(=O)Nc2nc(-c3ccc4ccccc4c3)cs2)CCC1 [Example 35, 2-[4-(naphthalin-2-yl)-thiazol-2-ylaminocarbonyl]-cyclopent-1-ene-carboxylic acid] | < 1000
3 | O=C(O)c1ccccc1Nc1nccc(-c2ccc3ccccc3c2)n1 [Example 50, 2-[4-(naphthalin-2-yl)-pyrimidin-2-ylamino]-benzoic acid] | < 1000
